Patent US20170296573A1, “ANTITUMOR DRUG COMPRISING BETA-CYCLODEXTRIN” (JRC G. K., priority 2014, published 2017)

What was measured:
UOK121 cells = assay: Example 10 Test B: cyclodextrin with 2DG-ABT in UOK121 cells, live cells by trypan-blue dye exclusion; format: cell-based, human; conditions: 10 mM 2DG, 10 mM cyclodextrin, 0.3 μM ABT-263, 25 mM glucose
Protocol: Dead and live cells were counted by trypan-blue dye exclusion methods. These experiments were done in triplicate, and the error bars indicate the standard deviation.
(Test A) UOK121 cells were incubated in 10% serum medium with 5 mM or 10 mM α-, β-, and γ-cyclodextrins for 45 minutes. The same medium without any cyclodextrin was also incubated as a control. The cells were harvested and analyzed by Western Blots for the phosphorylation of AKT and ERK1/2 as an indicator of the AKT and ERK1/2 activations. (Test B) 10 mM 2DG was added to a medium of U0K121 cells in the presence of 25 mM glucose, and the medium was incubated for 1.5 hours. To the medium was added 10 mM α-, β-, or γ-cyclodextrin, and the medium was incubated for 30 minutes. Then, 0.3 μM ABT-263 was added thereto, and the medium was further incubated for 2 hours. Separately, a control that includes only α-, β-, or γ-cyclodextrin without 2DG or ABT-263, and another control that includes neither α-, β-, or γ-cyclodextrin, nor 2DG or ABT-263 were prepared. 2.5 hours after adding each cyclodextrin (i.e., 2 hours after adding ABT-263), all the cells were washed with the medium twice, and next day the live cells were counted by trypan-blue dye exclusion assay.

AKT [1] = assay: Example 6 Test A: AKT phosphorylation, HeLa cervical cancer cells; format: cell-based; conditions: 10 mM bCD (MBCD) 30 minutes, 25 mM glucose
Protocol: (§1) We ran 20 μg of proteins per lane for western blots. We ran 8, 10, 12.5 and 15% gels depending on the size of proteins being detected by western blots. When there are two proteins having a similar size, gel is flowed in each protein to make western blot analysis about each protein. The immunoprecipitation was undergone by adding 200 μg of protein from solubilized cells and Protein G Sepharose or Protein A Sepharose (Sigma P3296/P9242) pre-conjugated with immunoprecipitation antibody to a buffer for immunoprecipitation, and slowly rotating the tube containing the sample buffer at 4° C. overnight. […] The precipitate in the solution was separated with 15% SDS-PAGE or 12.5% SDS-PAGE and analyzed by Western blotting.
(§2) (Test A) HeLa cervical cancer cells, UOK121 renal cancer cells, Panc-1 pancreatic cancer cells, and A431 squamous cancer cells were untreated, pre-treated with 10 mM 2DG, co-incubated with 10 mM bCD for the last 30 minutes, or both-treated with the 10 mM 2DG and the 10 mM bCD, in the presence of 25 mM glucose contained in the media. Each cell was harvested and analyzed by Western Blotting. (Test B) The same samples of A431 cell lysates in Test A were analyzed for EGFR activation, ERK1/2 activation, and PI3K activation. […] The cells were harvested and the live cells were counted by trypan-blue dye exclusion assay. […]

[2] = tested on: PI3K-AKT pro-survival signals; assay: Example 1 Tests B and C: EGF or IGF1 challenge of HeLa cells, Western blot for EGFR, IGF1R, PI3K, AKT phosphorylation; format: cell-based; conditions: 10 mM bCD (MBCD) 30 minutes, then 100 ng/mL EGF or 10 ng/mL IGF1
Protocol: as §1, with “overnight. The buffer for immunoprecipitation comprises 20 mM Tris Ph 7.5, 1% Triton-X100, 150 mM NaCl, phosphatase inhibitor cocktail (Cell Signaling (#58709S)), and 10% glycerol.” for “overnight.”
(§3) (Test A) HeLa cells were incubated in serum-free medium with 0, 1.75, 3.5, and 7.0 mM bCD for 30 minutes, which were prepared in duplicate in each bCD concentration. […] The cells were harvested and analyzed by Western Blots for phosphor-serine AKT and AKT, in which the phosphorylation of AKT was used as an indicator of the AKT activation. […] The cells were harvested and analyzed by Western Blots about EGFR, IGF1R, ERK, PI3K, and AKT, as well as each phosphorylation thereof. […]

RTK-Ras-ERK signals = assay: Example 1 Tests B and C: ERK signals in EGF or IGF1 challenged HeLa cells, Western blot; format: cell-based; conditions: 10 mM bCD (MBCD) 30 minutes, then EGF or IGF1
Protocol: as §1, with “overnight. The buffer for immunoprecipitation comprises 20 mM Tris Ph 7.5, 1% Triton-X100, 150 mM NaCl, phosphatase inhibitor cocktail (Cell Signaling (#58709S)), and 10% glycerol.” for “overnight.”
as §3

AKT [3] = assay: Example 1 Test A: IGF1-stimulated AKT phosphorylation in HeLa cells, Western blot; format: cell-based; conditions: serum-free, 7 mM bCD (MBCD) 30 minutes, 20 ng/mL IGF1 20 minutes
Protocol: as §1, with “overnight. The buffer for immunoprecipitation comprises 20 mM Tris Ph 7.5, 1% Triton-X100, 150 mM NaCl, phosphatase inhibitor cocktail (Cell Signaling (#58709S)), and 10% glycerol.” for “overnight.”
as §3

EGFR, ERK1/2, and PI3K = assay: Example 6 Test B: EGFR, ERK1/2 and PI3K activation in A431 cells; format: cell-based; conditions: bCD and/or 2DG, 10 mM each
Protocol: as §1, §2

AKT [4] = assay: Example 6 Test A: AKT phosphorylation, A431 squamous cancer cells; format: cell-based; conditions: 10 mM bCD (MBCD) 30 minutes, 25 mM glucose
Protocol: as §1, §2

[5] = tested on: IGF1-induced hypoglycemia; assay: Example 4: IGF1-induced hypoglycemia in mice; format: in vivo; conditions: five-hour starved mice, 40 μg bCD (HPBCD) 30 minutes before 100 ng IGF1, glucose after thirty minutes
Protocol: Five-hour starved mice were either pre-treated with 40 μg bCD for 30 minutes, or without. They were then injected with 100 ng IGF1. After thirty minutes, the blood glucose levels were measured by drawing blood from each mouse tail. The experiments were performed in triplicate samples and the error bars indicate the standard deviation. The mice were all about 20 g.

AKT [6] = assay: Example 3 Method C: recovery of AKT activities in HeLa cells after bCD washout; format: cell-based; conditions: 10 mM bCD (MBCD) one hour, washed, 10% serum, up to 120 minutes
Protocol: (§4) We ran 20 μg of proteins per lane for western blots. We ran 8, 10, 12.5 and 15% gels depending on the size of proteins being detected by western blots. When there are two proteins having a similar size, gel is flowed in each protein to make western blot analysis about each protein. The immunoprecipitation was undergone by adding 200 μg of protein from solubilized cells and Protein G Sepharose or Protein A Sepharose (Sigma P3296/P9242) pre-conjugated with immunoprecipitation antibody to a buffer for immunoprecipitation, and slowly rotating the tube containing the sample buffer at 4° C. overnight. The buffer for immunoprecipitation comprises 20 mM Tris Ph 7.5, 1% Triton-X100, 150 mM NaCl, phosphatase inhibitor cocktail (Cell Signaling (#58709S)), and 10% glycerol. Next morning, the content in the tube was centrifuged. The precipitate was washed with the same buffer twice and dissolved in SDS buffer. The precipitate in the solution was separated with 15% SDS-PAGE or 12.5% SDS-PAGE and analyzed by Western blotting.
HeLa cells were incubated with 10 mM bCD for one hour in the presence of 10% serum before the cells were washed and re-incubated in medium containing 10% serum for the indicated period (˜120 minutes).

AKT [7] = assay: Example 6 Test A: AKT phosphorylation, UOK121 renal cancer cells; format: cell-based, human; conditions: 10 mM bCD (MBCD) 30 minutes, 25 mM glucose
Protocol: as §1, §2

AKT [8] = assay: Example 6 Test A: AKT phosphorylation, Panc-1 pancreatic cancer cells; format: cell-based; conditions: Panc-1 cells, 10 mM bCD (MBCD) 30 minutes, 25 mM glucose
Protocol: as §1, §2

AKT [9] = assay: Example 3 Method B: AKT phosphorylation in RCC4 cells in 10% serum; format: cell-based; conditions: 10 mM 2DG 2 hours, 10 mM bCD (MBCD) last 30 minutes
Protocol: as §4
RCC4 cells were incubated with or without 10 mM 2DG for 2 hours in the presence of 10% serum. In the last 30 minutes, each one subset of cells treated/untreated with 2DG was exposed to 10 mM bCD before the cells were harvested and analyzed.

[10] = mice, injected, four hours later; cited from earlier work

Compound: OC[C@H]1O[C@@H]2O[C@H]3[C@H](O)[C@@H](O)[C@@H](O[C@H]4[C@H](O)[C@@H](O)[C@@H](O[C@H]5[C@H](O)[C@@H](O)[C@@H](O[C@H]6[C@H](O)[C@@H](O)[C@@H](O[C@H]7[C@H](O)[C@@H](O)[C@@H](O[C@H]1[C@H](O)[C@H]2O)O[C@@H]7CO)O[C@@H]6CO)O[C@@H]5CO)O[C@@H]4CO)O[C@@H]3CO [α-cyclodextrin]
- enhancement of the combination effect of 2DG-ABT (live cells) (UOK121 cells): little enhanced

Compound: OC[C@H]1O[C@@H]2O[C@H]3[C@H](O)[C@@H](O)[C@@H](O[C@H]4[C@H](O)[C@@H](O)[C@@H](O[C@H]5[C@H](O)[C@@H](O)[C@@H](O[C@H]6[C@H](O)[C@@H](O)[C@@H](O[C@H]7[C@H](O)[C@@H](O)[C@@H](O[C@H]8[C@H](O)[C@@H](O)[C@@H](O[C@H]9[C@H](O)[C@@H](O)[C@@H](O[C@H]1[C@H](O)[C@H]2O)O[C@@H]9CO)O[C@@H]8CO)O[C@@H]7CO)O[C@@H]6CO)O[C@@H]5CO)O[C@@H]4CO)O[C@@H]3CO [γ-cyclodextrin]
- enhancement of the combination effect of 2DG-ABT (live cells) (UOK121 cells): little enhanced

Compound: methyl-β-cyclodextrin [bCD]
- AKT phosphorylation (AKT [1]): attenuated
- AKT activations [2]: considerably diminished
- activation of EGFR, IGF1R, and PI3K [2]: clearly activated
- Ras-ERK proliferation signals (RTK-Ras-ERK signals): intact
- process that IGF1 generates signal to AKT (AKT phosphorylation) (AKT [3]): completely block
- EGFR, ERK1/2, and PI3K activation (EGFR, ERK1/2, and PI3K): all activated
- AKT phosphorylation (AKT [4]): attenuated
- IGF1-induced hypoglycemia (blood glucose) [5]: clearly attenuated
- AKT activities coming back after return to media without bCD (AKT [6]): did not take long
- AKT phosphorylation (AKT [7]): attenuated
- AKT phosphorylation (AKT [8]): attenuated
- phosphorylation of AKT (AKT [9]): almost totally absent

Compound: CC(O)COC[C@H]1O[C@@H]2O[C@H]3[C@H](O)[C@@H](O)[C@@H](O[C@H]4[C@H](O)[C@@H](O)[C@@H](O[C@H]5[C@H](O)[C@@H](O)[C@@H](O[C@H]6[C@H](O)[C@@H](O)[C@@H](O[C@H]7[C@H](O)[C@@H](O)[C@@H](O[C@H]8[C@H](O)[C@@H](O)[C@@H](O[C@H]1[C@H](O)[C@H]2O)O[C@@H]8COCC(C)O)O[C@@H]7COCC(C)O)O[C@@H]6COCC(C)O)O[C@@H]5COCC(C)O)O[C@@H]4COCC(C)O)O[C@@H]3COCC(C)O (stereo partly drawn) [HPBCD, (2-hydroxypropyl)-β-cyclodextrin]
- amount that remains in circulation [10]: about 50%
